Measured values published in patent publication US9468610B2, “1-aminocyclohexane derivatives for the treatment of hearing loss” (MERZ PHARMA GmbH & CO. KGaA, priority 2007, dated 2016).

Experiments:
[1] = test system: subjects with diagnosed hearing loss; test: Double blind placebo controlled pilot trial of neramexane for treatment of hearing loss (Example 1); format: in vivo, human; settings: neramexane mesylate up to 75 mg/day, modified release tablets, 16 weeks, versus placebo
Experimental: A hearing threshold level may be defined as the average of the pure tone hearing threshold levels at testing frequencies of 0.25, 0.5, 1, 2 and 4 kHz.
The primary objective of this study is to investigate the safety and efficacy of neramexane mesylate at daily doses of up to 75 mg in the treatment of hearing loss in comparison to placebo.
In order to be eligible to participate in the study, patients must meet the following criteria: • Male or female subjects aged between 18 and 80 years with diagnosed hearing loss of at least mild degree • Signed written informed consent • Female subjects must be at least 2 years post-menopausal or surgically sterile. Women of childbearing potential have to agree to use at least one effective method of contraception.
Visit 1 (screening): After signing the consent form, the subject undergoes a neurological and otological evaluation. […] Patient eligibility for study is evaluated via a check of inclusion/exclusion criteria.
Visit 2 (baseline): The subjects are asked about adverse events and changes in concomitant medication/disease, which events/changes are documented. Subject is evaluated for study eligibility based on a review of the inclusion/exclusion criteria. […]
Primary Outcome • Change from baseline in hearing threshold level of left/right ear (dB) calculated as average of the pure tone hearing level threshold levels at 0.25, 0.5, 1, 2 and 4 kHz. […]

[2] = test system: patients suffering from persistent, subjective uni- or bilateral tinnitus; test: Double-blind, multicenter, randomized, placebo-controlled, parallel-group study in tinnitus patients; pure tone audiogram (Example 2); format: in vivo, human; settings: 50 mg-dose group (25 mg immediate release tablets twice daily), after 16 weeks treatment, compared to placebo; FIG. 1
Experimental: Participants received either neramexane mesylate (e.g. 50 mg, as 25 mg immediate release tablets given twice daily) or placebo twice daily for 16 weeks. Neramexane mesylate was uptitrated in weekly steps of 12.5 or 25 mg during a 4-week uptitration period preceding the fixed-dose 12-week treatment period. Treatment was followed by a four week follow-up period.

CC1(C)CC(C)(C)CC(C)(N)C1 [neramexane, 1-amino-1,3,3,5,5-pentamethylcyclohexane]
Secondary outcomes: high frequency hearing threshold, individual frequencies, responders, patient-reported outcome, hearing impairment grade [1]: improvement
Primary outcomes: change from baseline in hearing threshold level of left/right ear ([1]; average of pure tone thresholds at 0.25, 0.5, 1, 2 and 4 kHz): improvement
Individual frequencies (hearing thresholds) on a pure tone audiogram (air conduction), secondary efficacy analysis [2]: trend for a modest treatment effect compared to placebo
